{"source": "patent US7687453B2", "about": "“Method for administering insulin to the buccal region” (Generex Pharmaceuticals Incorporated, priority 1998, dated 2010)", "type_in_all_cases": "in vivo, human", "key": {"blood glucose [1]": {"system": "blood glucose", "assay": "Blood glucose, nasal mixed micellar insulin vs injection (Example 10)", "details": "injection 10 units, avg of ten volunteers", "method": "The formulation of Example 9 was tested in a manner similar to that indicated in Example 8 except that the formulation of the present invention was administered nasally.\nOn the first day, the ten volunteers each received 10 units insulin injection (regular fast acting, Eli Lilly). On the second day, the volunteers received 20 units of the “oral” insulin of Example 9 (2 times the injection dose). The “oral” insulin was administered as drops (0.4 mL volume per drop, approximately 4 large drops in total, i.e. two drops in each nostril)."}, "blood glucose [2]": {"system": "blood glucose", "assay": "Blood glucose, oral mixed micellar insulin (bacitracin, evening primrose oil) vs injection, fasted volunteers (Example 14)", "details": "injection 10 units, avg of six fasted volunteers", "method": "Six human volunteers were studied. The volunteers fasted from midnight prior to the test, with no food being taken during the 4 hour study. On the first day, the volunteers received 10 units insulin by injection (regular fast acting insulin, available from Eli Lilly). On the second day, the volunteers received 20 units of the above-prepared oral insulin (twice the injection dose). In both tests, blood glucose levels were monitored at intervals by Bayer's Glucometer Elite."}, "meal glucose [3]": {"system": "meal glucose", "assay": "Meal glucose, oral mixed micellar insulin vs injection, healthy non-diabetic volunteers (Example 11)", "details": "injection 10 units, ten healthy volunteers, meal 30 min after dosing", "method": "The mixed micellar formulation of Example 9 was tested in healthy volunteers under controlled conditions to determine the oral insulin effect on meal glucose when compared to injected insulin.\nIn one set of tests, ten healthy non-diabetic human volunteers were tested with insulin, by injection. In another set of tests the volunteers were tested with insulin, taken orally. The volunteers fasted from midnight prior to the tests, with food being taken 30 minutes after dosing. The meals were standard Sastacal 240 mL liquid diet approved by the Diabetic Society, containing 400 calories.\n(§1) On the first day, the volunteers received 10 units insulin by injection (regular fast acting insulin, available from Eli Lilly). On the second day, the volunteers received 30 units of the above-prepared oral insulin (3 times the injection dose). In both tests, blood glucose levels were monitored every 15 minutes by Bayer's Glucometer Elite."}, "meal glucose [4]": {"system": "meal glucose", "assay": "Meal glucose, chewable gum insulin vs injection, Type II diabetic volunteers (Example 13)", "details": "injection 10 units, avg of five Type II diabetics, meal 30 min after dosing", "method": "The mixed micellar formulation in chewable stick form was tested in diabetic volunteers under controlled conditions to determine the oral insulin effect on meal glucose when compared to injected insulin.\nIn one set of tests, five Type II diabetic human volunteers who took insulin, by injection three times a day, were studied. In another set of tests the volunteers were tested with the chewable gum insulin, taken orally. The volunteers fasted from midnight prior to the tests, with food being taken 30 minutes after dosing. The meals were standard Sastacal 240 mL liquid diet approved by the Diabetic Society, containing 400 calories.\nas §1, with “above-prepared chewable gum” for “above-prepared”, “in” for “In”"}, "blood glucose [5]": {"system": "blood glucose", "assay": "Blood glucose after insulin injection vs oral insulin drops, fasted healthy non-diabetic volunteers (Example 1)", "set-up": "unit not given here", "details": "10 units sub-cutaneous injection, avg of 5 fasted healthy volunteers", "method": "In one set of tests, five healthy non-diabetic human volunteers were tested with insulin, by injection. In another set of tests the volunteers were tested with insulin, taken orally. The volunteers fasted from midnight prior to the test, with no food being taken during the 4 hour study.\nOn the first day, the volunteers received 10 units of insulin by injection (regular fast acting insulin, available from Eli Lilly). On the second day, the volunteers received 100 units (1 mL volume per drop, approximately 20 drops) of the above-prepared oral insulin (10 times the injection dose). In both tests, blood glucose levels were monitored every 15 minutes by Bayer's Glucometer Elite."}}, "data": [{"substance": "regular fast acting insulin: regular fast acting insulin, available from Eli Lilly, given by injection (10 units)", "values": [{"measurement": "Blood glucose levels", "setting": "blood glucose [1]; 0 min", "value": 6.8, "unit": "mmol/L"}, {"measurement": "Blood glucose levels", "setting": "blood glucose [1]; 15 min", "value": 7.0, "unit": "mmol/L"}, {"measurement": "Blood glucose levels", "setting": "blood glucose [1]; 30 min", "value": 6.8, "unit": "mmol/L"}, {"measurement": "Blood glucose levels", "setting": "blood glucose [1]; 45 min", "value": 6.3, "unit": "mmol/L"}, {"measurement": "Blood glucose levels", "setting": "blood glucose [1]; 60 min", "value": 6.3, "unit": "mmol/L"}, {"measurement": "Blood glucose levels", "setting": "blood glucose [1]; 75 min", "value": 5.8, "unit": "mmol/L"}, {"measurement": "Blood glucose levels", "setting": "blood glucose [1]; 90 min", "value": 5.2, "unit": "mmol/L"}, {"measurement": "Blood glucose levels", "setting": "blood glucose [1]; 105 min", "value": 5.0, "unit": "mmol/L"}, {"measurement": "Blood glucose levels", "setting": "blood glucose [1]; 120 min", "value": 5.2, "unit": "mmol/L"}, {"measurement": "Blood glucose levels", "setting": "blood glucose [1]; 135 min", "value": 4.2, "unit": "mmol/L"}, {"measurement": "Blood glucose levels", "setting": "blood glucose [1]; 150 min", "value": 4.6, "unit": "mmol/L"}, {"measurement": "Blood glucose levels", "setting": "blood glucose [1]; 165 min", "value": 4.0, "unit": "mmol/L"}, {"measurement": "Blood glucose levels", "setting": "blood glucose [1]; 180 min", "value": 4.1, "unit": "mmol/L"}, {"measurement": "Blood glucose levels", "setting": "blood glucose [1]; 195 min", "value": 4.3, "unit": "mmol/L"}, {"measurement": "Blood glucose levels", "setting": "blood glucose [1]; 210 min", "value": 4.5, "unit": "mmol/L"}, {"measurement": "Blood glucose levels", "setting": "blood glucose [1]; 225 min", "value": 4.7, "unit": "mmol/L"}, {"measurement": "Blood glucose levels", "setting": "blood glucose [1]; 240 min", "value": 5.0, "unit": "mmol/L"}, {"measurement": "Blood glucose levels", "setting": "blood glucose [2]; 0 min", "value": 7.9, "unit": "mmol/L"}, {"measurement": "Blood glucose levels", "setting": "blood glucose [2]; 15 min", "value": 7.9, "unit": "mmol/L"}, {"measurement": "Blood glucose levels", "setting": "blood glucose [2]; 30 min", "value": 8.2, "unit": "mmol/L"}, {"measurement": "Blood glucose levels", "setting": "blood glucose [2]; 45 min", "value": 8.3, "unit": "mmol/L"}, {"measurement": "Blood glucose levels", "setting": "blood glucose [2]; 60 min", "value": 7.6, "unit": "mmol/L"}, {"measurement": "Blood glucose levels", "setting": "blood glucose [2]; 90 min", "value": 6.2, "unit": "mmol/L"}, {"measurement": "Blood glucose levels", "setting": "blood glucose [2]; 120 min", "value": 5.2, "unit": "mmol/L"}, {"measurement": "Blood glucose levels", "setting": "blood glucose [2]; 150 min", "value": 4.6, "unit": "mmol/L"}, {"measurement": "Blood glucose levels", "setting": "blood glucose [2]; 180 min", "value": 3.9, "unit": "mmol/L"}, {"measurement": "Blood glucose levels", "setting": "blood glucose [2]; 210 min", "value": 4.4, "unit": "mmol/L"}, {"measurement": "Blood glucose levels", "setting": "blood glucose [2]; 240 min", "value": 5.2, "unit": "mmol/L"}, {"measurement": "Blood glucose levels", "setting": "meal glucose [3]; 0 min", "value": 5.5, "unit": "mmol/L"}, {"measurement": "Blood glucose levels", "setting": "meal glucose [3]; 15 min", "value": 5.6, "unit": "mmol/L"}, {"measurement": "Blood glucose levels", "setting": "meal glucose [3]; 30 min", "value": 5.4, "unit": "mmol/L"}, {"measurement": "Blood glucose levels", "setting": "meal glucose [3]; 45 min", "value": 5.4, "unit": "mmol/L"}, {"measurement": "Blood glucose levels", "setting": "meal glucose [3]; 60 min", "value": 5.6, "unit": "mmol/L"}, {"measurement": "Blood glucose levels", "setting": "meal glucose [3]; 75 min", "value": 6.6, "unit": "mmol/L"}, {"measurement": "Blood glucose levels", "setting": "meal glucose [3]; 90 min", "value": 7.0, "unit": "mmol/L"}, {"measurement": "Blood glucose levels", "setting": "meal glucose [3]; 105 min", "value": 5.9, "unit": "mmol/L"}, {"measurement": "Blood glucose levels", "setting": "meal glucose [3]; 120 min", "value": 5.6, "unit": "mmol/L"}, {"measurement": "Blood glucose levels", "setting": "meal glucose [3]; 135 min", "value": 5.1, "unit": "mmol/L"}, {"measurement": "Blood glucose levels", "setting": "meal glucose [3]; 150 min", "value": 4.8, "unit": "mmol/L"}, {"measurement": "Blood glucose levels", "setting": "meal glucose [3]; 165 min", "value": 4.6, "unit": "mmol/L"}, {"measurement": "Blood glucose levels", "setting": "meal glucose [3]; 180 min", "value": 4.3, "unit": "mmol/L"}, {"measurement": "Blood glucose levels", "setting": "meal glucose [4]; 0 min", "value": 8.8, "unit": "mmol/L"}, {"measurement": "Blood glucose levels", "setting": "meal glucose [4]; 15 min", "value": 8.2, "unit": "mmol/L"}, {"measurement": "Blood glucose levels", "setting": "meal glucose [4]; 30 min", "value": 8.0, "unit": "mmol/L"}, {"measurement": "Blood glucose levels", "setting": "meal glucose [4]; 45 min", "value": 8.4, "unit": "mmol/L"}, {"measurement": "Blood glucose levels", "setting": "meal glucose [4]; 60 min", "value": 9.2, "unit": "mmol/L"}, {"measurement": "Blood glucose levels", "setting": "meal glucose [4]; 75 min", "value": 10.3, "unit": "mmol/L"}, {"measurement": "Blood glucose levels", "setting": "meal glucose [4]; 90 min", "value": 11.8, "unit": "mmol/L"}, {"measurement": "Blood glucose levels", "setting": "meal glucose [4]; 105 min", "value": 11.6, "unit": "mmol/L"}, {"measurement": "Blood glucose levels", "setting": "meal glucose [4]; 120 min", "value": 11.0, "unit": "mmol/L"}, {"measurement": "Blood glucose levels", "setting": "meal glucose [4]; 135 min", "value": 10.2, "unit": "mmol/L"}, {"measurement": "Blood glucose levels", "setting": "meal glucose [4]; 150 min", "value": 9.6, "unit": "mmol/L"}, {"measurement": "Blood glucose levels", "setting": "meal glucose [4]; 165 min", "value": 9.5, "unit": "mmol/L"}, {"measurement": "Blood glucose levels", "setting": "meal glucose [4]; 180 min", "value": 9.1, "unit": "mmol/L"}, {"measurement": "Blood glucose levels", "setting": "meal glucose [4]; 195 min", "value": 8.7, "unit": "mmol/L"}, {"measurement": "Blood glucose levels", "setting": "meal glucose [4]; 210 min", "value": 8.2, "unit": "mmol/L"}, {"measurement": "Blood glucose levels", "setting": "meal glucose [4]; 225 min", "value": 8.0, "unit": "mmol/L"}, {"measurement": "Blood glucose levels", "setting": "meal glucose [4]; 240 min", "value": 7.5, "unit": "mmol/L"}, {"measurement": "Blood glucose level", "setting": "blood glucose [5]; 0 min", "value": 5.8}, {"measurement": "Blood glucose level", "setting": "blood glucose [5]; 15 min", "value": 5.8}, {"measurement": "Blood glucose level", "setting": "blood glucose [5]; 30 min", "value": 5.4}, {"measurement": "Blood glucose level", "setting": "blood glucose [5]; 60 min", "value": 5.0}, {"measurement": "Blood glucose level", "setting": "blood glucose [5]; 75 min", "value": 4.6}, {"measurement": "Blood glucose level", "setting": "blood glucose [5]; 90 min", "value": 4.3}, {"measurement": "Blood glucose level", "setting": "blood glucose [5]; 120 min", "value": 3.8}, {"measurement": "Blood glucose level", "setting": "blood glucose [5]; 150 min", "value": 3.6}, {"measurement": "Blood glucose level", "setting": "blood glucose [5]; 180 min", "value": 3.4}, {"measurement": "Blood glucose level", "setting": "blood glucose [5]; 210 min", "value": 4.2}, {"measurement": "Blood glucose level", "setting": "blood glucose [5]; 240 min", "value": 4.5}]}]}
